Measured values published in paper PMC11051924, “Design, Synthesis, and Biological Evaluation of Novel Tetrahydroacridin Hybrids with Sulfur-Inserted Linkers as Potential Multitarget Agents for Alzheimer’s Disease” (Molecules, 2024).
Entries after “also recorded” stand apart in the source; their conditions may differ. Read-outs that look alike come from different tables or passages of the source.

What was measured:
GSK-3β = details: cited from earlier work
AChE [1] = target: T1, AChE (Electrophorus electricus, UniProt O42275); design: method as in PMID 34024109; details: value of the design leads (abstract, Figure 2); cited from earlier work
T1 sequence (O42275 24-633): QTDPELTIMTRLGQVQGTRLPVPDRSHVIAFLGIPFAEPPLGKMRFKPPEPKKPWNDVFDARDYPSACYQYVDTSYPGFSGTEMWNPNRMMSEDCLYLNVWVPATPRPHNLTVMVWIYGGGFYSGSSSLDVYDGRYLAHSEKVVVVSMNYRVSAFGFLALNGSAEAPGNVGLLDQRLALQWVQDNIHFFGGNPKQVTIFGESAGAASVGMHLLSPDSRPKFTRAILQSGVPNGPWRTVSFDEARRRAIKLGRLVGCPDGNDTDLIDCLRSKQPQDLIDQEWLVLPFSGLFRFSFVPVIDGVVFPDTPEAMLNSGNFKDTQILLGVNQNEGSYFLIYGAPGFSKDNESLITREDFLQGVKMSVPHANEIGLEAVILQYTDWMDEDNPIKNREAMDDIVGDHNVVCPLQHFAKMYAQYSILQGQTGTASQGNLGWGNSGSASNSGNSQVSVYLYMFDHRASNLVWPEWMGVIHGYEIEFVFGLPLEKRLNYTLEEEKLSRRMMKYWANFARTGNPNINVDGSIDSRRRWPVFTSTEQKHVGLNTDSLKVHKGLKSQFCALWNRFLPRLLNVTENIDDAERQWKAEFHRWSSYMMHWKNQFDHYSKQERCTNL

AChE [2] = target: T1, AChE; test: biochemical; design: species or system electric eel
Method: The inhibitory activities of the compounds on AChE were determined by an Ellman assay. First, 20 μL of phosphate buffer was added to a 96-well plate. Then, compounds of different concentrations (20 μL), 100μL of 1mM DTNB, and 40 μL of AChE solution (2 U/mL) were added successively. The plate was incubated at 37 °C for 15 min. Briefly, 20 μL of acetylthiocholine iodide (1 mM) was added to the mixed solution. The plate was incubated at 25 °C for 20 min. The reaction was terminated by adding 3% SDS to each well. […] The inhibition of each compound was calculated using the formula (1 − Ai/Ac) × 100, where Ai and Ac represent the absorbance of the reaction mixture in the presence and absence of inhibitors, respectively. The IC50 values of all target compounds were calculated by using Graph Pad Prism 9.5.

recombinant human GSK-3β = target: T2, recombinant human GSK-3β (Homo sapiens, UniProt P49841); test: GSK-3β inhibition (luciferin kinase detection); format: biochemical
T2 construct: purchased
T2 sequence (P49841 whole entry): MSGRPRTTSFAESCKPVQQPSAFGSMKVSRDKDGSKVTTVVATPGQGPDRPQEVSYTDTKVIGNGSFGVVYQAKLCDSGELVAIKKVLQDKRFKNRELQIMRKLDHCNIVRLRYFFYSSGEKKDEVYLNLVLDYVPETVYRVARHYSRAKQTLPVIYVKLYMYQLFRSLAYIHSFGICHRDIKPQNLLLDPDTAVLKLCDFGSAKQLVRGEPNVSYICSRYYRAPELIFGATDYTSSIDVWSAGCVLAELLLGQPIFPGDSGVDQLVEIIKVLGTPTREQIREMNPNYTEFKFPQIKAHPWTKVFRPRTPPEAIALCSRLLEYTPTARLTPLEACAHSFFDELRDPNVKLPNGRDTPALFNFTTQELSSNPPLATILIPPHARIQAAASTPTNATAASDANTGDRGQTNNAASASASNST
Method: Add ATP and substrate polypeptide to the reaction template for GSK-3β under the most suitable enzyme reaction system and conditions, let the enzyme react with ATP and substrate polypeptide, and use luciferin kinase detection technology to detect enzyme activity. All the compounds to be tested were prepared by adding DMSO to a solution with a concentration of 10^−2 mol/L and diluted with PBS to the required concentration when used; the purchased GSK-3β was diluted from 1600 ng/μL to 2 ng/μL, ready for use.

AChE [3] = target: T1, AChE; test: Kinetic study of AChE inhibition (Lineweaver–Burk); format: biochemical; details: Lineweaver–Burk plots; 0.02, 0.04, 0.08 μM inhibitor
Method: In 96-well plates, 20μL of PBS, compound 18a (20 μL) with three final concentrations (0.02 μM, 0.04 μM, and 0.08 μM), 20 μL of acetylthiocholine iodide (50–300 μM), and 40 μL of AChE (2 U/mL) were added successively. After incubation at 37 °C for 15 min, 100 μL of DTNB (1 mM) was added. A microplate reader (Thermo, Waltham, MA, USA) was used to record the absorbance at 405 nm. Lineweaver–Burk reciprocal plots were created by graphing 1/V vs. 1/[S] by using GraphPad Prism 9.5.

[4] = tested on: SH-SY5Y neuroblastoma cells; test: Cytotoxicity on SH-SY5Y cells (MTT assay); format: cell-based, human; details: concentrations of up to 25 μM
Method: SH-SY5Y cells were cultured in Dulbecco’s modified Eagle medium (DMEM) with F12 (KeyGEN BioTECH, Nanjing, China), supplemented with 10% (v/v) fetal bovine serum (FBS) (Sen Bei Jia) and antibiotics (penicillin streptomycin) (KeyGEN BioTECH, Nanjing, China). Cells were kept at 37 °C and 5% CO2 in a humidified atmosphere in a cell culture incubator and passaged twice a week.
The cytotoxicity assay on SH-SY5Y cells was the same as in our previous studies. Cells were seeded in a 96-well plate, and the medium was removed after 24 h. Compound 18a (3.125 μM, 6.25 μM, 12.5 μM, and 25 μM) was added to each well. After treatment for 24 h, 10 μL of 3-(4,5-dimethyl-2-thiazolyl)-2,5-diphenyl-2-H-tetrazolium bromide was added to each well. After incubation at 37 °C for 4 h, 100 μL of DMSO was added, and the absorbance of the mixture was determined at 590 nm using a microplate reader (FC/K3, Thermo, Waltham, MA, USA). We used the formula Ae/Ab 100% to calculate the survival rate, where Ae and Ab represent the absorbance in the presence and absence of the tested drugs. Each experiment was carried out three times in total.

HepG2 cells = test: Hepatotoxicity on HepG2 cells (MTT assay); format: cell-based; details: concentrations of up to 20 μM
Method: HepG2 cells were cultured in DMEM supplemented with 10% FBS and 100 U/mL of penicillin-streptomycin (Thermo, Waltham, MA, USA) at 37 °C in a humidified atmosphere containing 5% CO2.
HepG2 cells were seeded in 96-well plates at a density of 2 × 10^4 cells per well. After 24 h, different concentrations of tacrine or compound 18a (1 μM, 5 μM, 10 μM, and 20 μM) and DMSO were added to the wells. MTT assay was performed, and the survival percentage of cells was calculated.

[5] = AChE from electric eel, mean of three independent determinations, read-out: IC50 (μM) ± SEM AChE
[6] = recombinant human GSK-3β, mean of three independent determinations, read-out: IC50 (μM) ± SEM GSK-3β

| SMILES | IC50 (AChE [2]; [5]) [µM] | IC50 (recombinant human GSK-3β; [6]) [µM] | further results |
| --- | --- | --- | --- |
| Cc1nc(-c2ccncc2)cc(=O)[nH]1 [Compound 5] | – | – | IC50 (GSK-3β; pyrimidone lead compound 5): 3000 nM |
| Cn1c(NCCCCCCCNc2c3c(nc4cc(Cl)ccc24)CCCC3)nc(-c2ccncc2F)cc1=O [Compound 7] | – | – | IC50 (GSK-3β; previous hybrid compound 7): 89 nM; IC50 (AChE [1]): 51 nM |
| Cn1c(SCCNc2c3c(nc4cc(Cl)ccc24)CCCC3)nc(-c2ccncc2)cc1=O [Compound 16a, 2-((2-((6-Chloro-1,2,3,4-tetrahydroacridin-9-yl)amino)ethyl)thio)-3-methyl-6-(pyridin-4-yl)pyrimidin-4(3H)-one] | 2.3 ± 0.14 | 15.1 ± 0.9 | – |
| Cn1c(SCCNc2c3c(nc4ccc(Br)cc24)CCCC3)nc(-c2ccncc2)cc1=O [Compound 16b, 2-((2-((7-Bromo-1,2,3,4-tetrahydroacridin-9-yl)amino)ethyl)thio)-3-methyl-6-(pyridin-4-yl)pyrimidin-4(3H)-one] | 20 ± 1.5 | 38.5 ± 0.7 | – |
| Cn1c(SCCNc2c3c(nc4ccc(Cl)cc24)CCCC3)nc(-c2ccncc2)cc1=O [Compound 16c, 2-((2-((7-Chloro-1,2,3,4-tetrahydroacridin-9-yl)amino)ethyl)thio)-3-methyl-6-(pyridin-4-yl)pyrimidin-4(3H)-one] | 10.3 ± 0.7 | 2.28 ± 0.07 | – |
| Cn1c(SCCNc2c3c(nc4cc(Cl)ccc24)CCCC3)nc(-c2ccncc2F)cc1=O [Compound 16d, 2-((2-((6-Chloro-1,2,3,4-tetrahydroacridin-9-yl)amino)ethyl)thio)-6-(3-fluoropyridin-4-yl)-3-methylpyrimidin-4(3H)-one] | 1.89 ± 0.21 | 1.69 ± 0.09 | – |
| Cn1c(SCCNc2c3c(nc4ccc(Br)cc24)CCCC3)nc(-c2ccncc2F)cc1=O [Compound 16e, 2-((2-((7-Bromo-1,2,3,4-tetrahydroacridin-9-yl)amino)ethyl)thio)-6-(3-fluoropyridin-4-yl)-3-methylpyrimidin-4(3H)-one] | 15.3 ± 0.9 | 0.94 ± 0.02 | – |
| Cn1c(SCCNc2c3c(nc4ccc(Cl)cc24)CCCC3)nc(-c2ccncc2F)cc1=O [Compound 16f, 2-((2-((7-Chloro-1,2,3,4-tetrahydroacridin-9-yl)amino)ethyl)thio)-6-(3-fluoropyridin-4-yl)-3-methylpyrimidin-4(3H)-one] | – | – | IC50 (AChE [2]): 16.5 ± 0.8 µM; IC50 (recombinant human GSK-3β): 2.44 ± 0.06 µM |
| Cn1c(NCCSSCCNc2c3c(nc4cc(Cl)ccc24)CCCC3)nc(-c2ccncc2)cc1=O [Compound 18a, 2-((2-((2-((6-Chloro-1,2,3,4-tetrahydroacridin-9-yl)amino)ethyl)disulfanyl)ethyl)amino)-3-methyl-6-(pyridin-4-yl)pyrimidin-4(3H)-one] | 0.047 ± 0.002 | 0.93 ± 0.08 | inhibition mode against AChE (AChE [3]): mixed type; toxicity to SH-SY5Y neuroblastoma cells [4]: lack of toxicity; also recorded: no toxicity; hepatotoxicity on HepG2 cells (HepG2 cells): no significant hepatotoxicity |
| Cn1c(NCCSSCCNc2c3c(nc4ccc(Br)cc24)CCCC3)nc(-c2ccncc2)cc1=O [Compound 18b, 2-((2-((2-((7-Bromo-1,2,3,4-tetrahydroacridin-9-yl)amino)ethyl)disulfanyl)ethyl)amino)-3-methyl-6-(pyridin-4-yl)pyrimidin-4(3H)-one] | 2.13 ± 0.11 | 0.37 ± 0.02 | – |
| Cn1c(NCCSSCCNc2c3c(nc4ccc(Cl)cc24)CCCC3)nc(-c2ccncc2)cc1=O [Compound 18c, 2-((2-((2-((7-Chloro-1,2,3,4-tetrahydroacridin-9-yl)amino)ethyl)disulfanyl)ethyl)amino)-3-methyl-6-(pyridin-4-yl)pyrimidin-4(3H)-one] | 2.24 ± 0.13 | 0.42 ± 0.03 | – |
